Measurements from patent US4442118A, “Aldose reductase inhibition by 1-(4-chlorobenzoyl)-5-methoxy-2-methyl-1H-indole-3-acetic acid” (Ayerst, McKenna & Harrison, Inc., priority 1981, dated 1984).

Biological target: lens aldose reductase (Bos taurus, UniProt P16116)
Assay: in vitro aldose reductase inhibition test (modified Hayman and Kinoshita procedure)
Type: biochemical, bovine
Method: In the present case the procedure of Hayman and Kinoshita is modified in that the final chromatography step is omitted in the preparation of the enzyme from bovine lens.
The following results were obtained when indomethacin was evaluated in the above in vitro test: […]

SMILES: COc1ccc2c(c1)c(CC(=O)O)c(C)n2C(=O)c1ccc(Cl)cc1 [Indomethacin, 1-(4-Chlorobenzoyl)-5-methoxy-2-methyl-1H-indole-3-acetic acid]
- inhibitor of lens aldose reductase (in words): potent inhibitor of lens aldose reductase
